Assay: Inhibition of HTLV-1 protease using (RE(Edans)TKVLVVQPK(Dabsyl)R) as substrate by fluorescence assay
Design: species or system Human T-cell leukemia virus type I

`C=CCN([C@H]1CNC[C@@H]1N(CC=C)S(=O)(=O)c1ccccc1)S(=O)(=O)c1ccccc1` gave a Ki of 172 µM.

For `CC(C)=CCN([C@H]1CNC[C@@H]1N(CC=C(C)C)S(=O)(=O)c1ccccc1)S(=O)(=O)c1ccccc1`, the Ki was 11.6 µM.

Work on `O=S(=O)(c1ccccc1)N(Cc1ccccc1)[C@H]1CNC[C@@H]1N(Cc1ccccc1)S(=O)(=O)c1ccccc1` yielded a Ki of 2 µM.

`O=[N+]([O-])c1ccc(S(=O)(=O)N(Cc2ccccc2)[C@H]2CNC[C@@H]2N(Cc2ccccc2)S(=O)(=O)c2ccc([N+](=O)[O-])cc2)cc1` showed a Ki of 7.9 µM.

In the case of `Cc1ccccc1S(=O)(=O)N(Cc1ccccc1)[C@H]1CNC[C@@H]1N(Cc1ccccc1)S(=O)(=O)c1ccccc1C`, the Ki is reported as 2.6 µM.

`Nc1ccc(S(=O)(=O)N(Cc2ccccc2)[C@H]2CNC[C@@H]2N(Cc2ccccc2)S(=O)(=O)c2ccc(N)cc2)cc1` showed a Ki of 0.015 µM.

For `O=S(=O)(c1ccccc1Cl)N(Cc1ccccc1)[C@H]1CNC[C@@H]1N(Cc1ccccc1)S(=O)(=O)c1ccccc1Cl`, the Ki was 2.4 µM.

In the case of `O=S(=O)(c1ccccc1)N(Cc1ccc(C(F)(F)F)cc1)[C@H]1CNC[C@@H]1N(Cc1ccc(C(F)(F)F)cc1)S(=O)(=O)c1ccccc1`, the Ki is reported as > 250 µM.

For `C=C(C)CN([C@H]1CNC[C@@H]1N(CC(=C)C)S(=O)(=O)c1ccccc1)S(=O)(=O)c1ccccc1`, the Ki was 17.8 µM.

In the case of `O=S(=O)(c1ccccc1)N(Cc1ccc(I)cc1)[C@H]1CNC[C@@H]1N(Cc1ccc(I)cc1)S(=O)(=O)c1ccccc1`, the Ki is reported as > 200 µM.

From ChEMBL document CHEMBL3576846, “Privileged Structures Meet Human T-Cell Leukemia Virus-1 (HTLV-1): C2-Symmetric 3,4-Disubstituted Pyrrolidines as Nonpeptidic HTLV-1 Protease Inhibitors” (J Med Chem, 2015)
